The values below come from ChEMBL document CHEMBL2046380, “Synthesis and structure-activity relationship of disubstituted benzamides as a novel class of antimalarial agents” (Bioorg Med Chem Lett, 2012).

One test has as its system HepG2. The test can be described thus: Cytotoxicity against human HepG2 cells after 72 hrs by […] CellTiterGlo reagent assay. It is filed as cell-based. To be noted: HepG2, 72 h. Background: Resazurin is reduced to fluorescent resorufin, in cell work by metabolically active cells.
In test [1] the test system is Plasmodium falciparum. The test can be described thus: Antimalarial activity against […] incubated for 72 hrs by DNA staining based MARK1 growth inhibition assay. In kind it is functional, organism-based.
The test system of test [2] is Plasmodium falciparum. The test can be described thus: Antimalarial activity against chloroquine-sensitive Plasmodium falciparum 3D7 incubated for 72 hrs by DNA staining based MAR3D7 growth inhibition assay. The conditions noted are these: 3D7, 72 h. In kind it is functional, organism-based.
A further test relates to BJ. The test can be described thus: Cytotoxicity against human BJ cells after 72 hrs by […] CellTiterGlo reagent assay. It is filed as cell-based.
The subject of another test is HEK293. The test can be described thus: Cytotoxicity against human HEK293 cells after 72 hrs by […] CellTiterGlo reagent assay. In kind it is cell-based. To be noted: HEK293, 72 h.
Another test deals with Raji. The test can be described thus: Cytotoxicity against human Raji cells after 72 hrs by […] CellTiterGlo reagent assay. It is filed as cell-based.

For `CCOC(=O)CCCCCOc1cccc(CN(C(=O)c2ccc(-c3cccc(OCC(C)C)c3)cc2)C(C)C)c1`, the concentration for a half-maximal effect (EC50) (as a rule, the concentration giving half of the maximal effect) in the test with HepG2 was greater than 26 µM; with Plasmodium falciparum [1] it was greater than 15 µM; in the test on Plasmodium falciparum [2], greater than 15 µM; in the test on BJ it was greater than 26 µM; in the test with HEK293 it was greater than 26 µM; in the test on Raji it was greater than 26 µM.
As to `COC(=O)CCCC1=NCCc2cc(OC)c(OC)cc21`, the concentration giving a half-maximal response (EC50) in the test on HepG2 was greater than 13 µM; in the test with Plasmodium falciparum [1], greater than 7.51 µM; in the test with Plasmodium falciparum [2], greater than 7.51 µM; in the test with BJ it was greater than 13 µM; with HEK293 it was greater than 13 µM; with Raji, greater than 13 µM.
Consider `CCOC(=O)CCCCCOc1ccc(C(O)O)cc1`, for which the EC50 in the test with HepG2 was greater than 27.2 µM; in the test with Plasmodium falciparum [1] it was greater than 15 µM; in the test on Plasmodium falciparum [2], greater than 15 µM; in the test with BJ, greater than 27.2 µM; in the test on HEK293 it was greater than 27.2 µM; with Raji it was greater than 27.2 µM.
Regarding `CC(C)(C)OC(=O)NCC(OC(=O)C(O)CO)c1ccc2c(c1)OCO2` (stereo unspecified), the EC50 was greater than 13 µM in the test with HepG2; greater than 7.51 µM in the test with Plasmodium falciparum [1]; greater than 7.51 µM in the test with Plasmodium falciparum [2]; greater than 13 µM in the test with BJ; greater than 13 µM in the test with HEK293; greater than 13 µM in the test on Raji.
On to `CCOC(=O)CCCCCOc1cccc(CN(C(=O)c2ccc(-c3ccc4c(c3)OCO4)cc2)C(C)C)c1`, for which the EC50 in the test with HepG2 is greater than 22.6 µM; in the test with Plasmodium falciparum [1] it was greater than 12.5 µM; with Plasmodium falciparum [2], greater than 12.5 µM; in the test with BJ it was greater than 22.6 µM; in the test on HEK293 it was greater than 22.6 µM; in the test on Raji, greater than 22.6 µM.
As for `CCOC(=O)CCCCCOc1cccc(CN(C(=O)c2ccc(-c3ccc4[nH]ccc4c3)cc2)C(C)C)c1`, the EC50 in the test on HepG2 is greater than 26 µM; in the test with Plasmodium falciparum [1], greater than 15 µM; with Plasmodium falciparum [2], greater than 15 µM; with BJ it was greater than 26 µM; in the test on HEK293, greater than 26 µM; in the test on Raji, greater than 26 µM.
As to `CCOC(=O)CCCCCOc1cccc(CN(C(=O)c2ccc(-c3cccc(-c4nnc(C)o4)c3)cc2)C(C)C)c1`, the EC50 was greater than 26 µM with HepG2; greater than 15 µM with Plasmodium falciparum [1]; greater than 15 µM with Plasmodium falciparum [2]; greater than 26 µM with BJ; greater than 26 µM in the test on HEK293; greater than 26 µM in the test with Raji.
On to `CC(C)N(Cc1cccc(OCCCCCC(=O)O)c1)C(=O)c1ccc(-c2cccc(Cl)c2)cc1`, for which the half-maximal effective concentration (EC50) in the test with HepG2 was greater than 21.9 µM; in the test with Plasmodium falciparum [1], greater than 12.1 µM; in the test with Plasmodium falciparum [2], greater than 12.1 µM; with BJ, greater than 21.9 µM; in the test on HEK293, greater than 21.9 µM; in the test with Raji it was greater than 21.9 µM.
As for `C=CCCN(CCc1ccc(OC)c(OC)c1)C(=O)CC(C)=O`, the EC50 is greater than 13 µM in the test with HepG2; greater than 7.51 µM with Plasmodium falciparum [1]; greater than 7.51 µM with Plasmodium falciparum [2]; greater than 13 µM with BJ; greater than 13 µM with HEK293; greater than 13 µM in the test on Raji.
For `CCCN(Cc1ccccc1OCCCCCC(=O)O)C(=O)c1ccc(-c2ccc3c(c2)OCO3)cc1`, the EC50 in the test with HepG2 was greater than 26 µM; in the test on Plasmodium falciparum [1] it was greater than 15 µM; with Plasmodium falciparum [2], greater than 15 µM; in the test on BJ, greater than 26 µM; with HEK293 it was greater than 26 µM; in the test with Raji it was greater than 26 µM.
Regarding `CCOC(=O)CCCCCOc1cccc(CN(C(=O)c2ccc(-c3cn(S(=O)(=O)c4ccccc4)c4ccccc34)cc2)C(C)C)c1`, the EC50 with HepG2 is greater than 26 µM; with Plasmodium falciparum [1], greater than 15 µM; in the test on Plasmodium falciparum [2] it was greater than 15 µM; in the test with BJ it was greater than 26 µM; in the test with HEK293, greater than 26 µM; with Raji, greater than 26 µM.
Consider `CC(C)N(Cc1ccccc1OCCCCCC(=O)O)C(=O)c1ccc(-c2ccc3c(c2)OCO3)cc1`, for which the concentration giving a half-maximal response (EC50) in the test on HepG2 was greater than 26 µM; in the test with Plasmodium falciparum [1], greater than 15 µM; with Plasmodium falciparum [2] it was greater than 15 µM; in the test with BJ it was greater than 26 µM; in the test on HEK293, greater than 26 µM; in the test on Raji, greater than 26 µM.
Consider `COc1ccc(CCNC(=O)CCCCC(C)=O)cc1OC`, for which the concentration for a half-maximal effect (EC50) in the test with HepG2 was greater than 13 µM; with Plasmodium falciparum [1], greater than 7.51 µM; with Plasmodium falciparum [2], greater than 7.51 µM; in the test with BJ, greater than 13 µM; in the test with HEK293, greater than 13 µM; in the test on Raji, greater than 13 µM.
For the molecule `COc1cc2c(cc1OC)C(CC1(C)OCCO1)=NCC2`, the EC50 in the test on HepG2 was greater than 13 µM; in the test with Plasmodium falciparum [1], greater than 7.51 µM; in the test on Plasmodium falciparum [2], greater than 7.51 µM; with BJ it was greater than 13 µM; in the test with HEK293, greater than 13 µM; with Raji, greater than 13 µM.
For `CC(C)N(Cc1cccc(OCCCCCC(=O)O)c1)C(=O)c1ccc(-c2cccc(CC#N)c2)cc1`, the concentration giving a half-maximal response (EC50) in the test with HepG2 was greater than 26 µM; in the test with Plasmodium falciparum [1] it was greater than 15 µM; in the test on Plasmodium falciparum [2], greater than 15 µM; in the test on BJ, greater than 26 µM; in the test with HEK293, greater than 26 µM; in the test on Raji, greater than 26 µM.
Regarding `CCOC(=O)CCCCCOc1ccc(CN(C(=O)c2ccc(-c3ccc4c(c3)OCO4)cc2)C(C)C)cc1`, the concentration giving a half-maximal response (EC50) with HepG2 is greater than 26 µM; with Plasmodium falciparum [1] it was greater than 15 µM; in the test on Plasmodium falciparum [2] it was greater than 15 µM; in the test with BJ it was greater than 26 µM; in the test on HEK293, greater than 26 µM; in the test on Raji, greater than 26 µM.
On to `CCCNCc1cccc(OCCCCCC(=O)OCC)c1`, for which the EC50 was greater than 26 µM in the test on HepG2; greater than 15 µM with Plasmodium falciparum [1]; greater than 15 µM with Plasmodium falciparum [2]; greater than 26 µM in the test on BJ; greater than 26 µM in the test on HEK293; greater than 26 µM in the test with Raji.
With `CCOC(=O)CCCCCOc1ccccc1CNC(C)C`, the 50% effective concentration (EC50) in the test on HepG2 was greater than 26 µM; in the test with Plasmodium falciparum [1], greater than 15 µM; with Plasmodium falciparum [2], greater than 15 µM; in the test on BJ it was greater than 26 µM; in the test on HEK293 it was greater than 26 µM; with Raji, greater than 26 µM.
`COc1cc2c(cc1OC)C(C)=NCC2`: the EC50 in the test on HepG2 is greater than 13 µM; in the test with Plasmodium falciparum [1] it was greater than 7.51 µM; with Plasmodium falciparum [2], greater than 7.51 µM; in the test on BJ, greater than 13 µM; in the test on HEK293, greater than 13 µM; in the test with Raji it was greater than 13 µM.
As to `CC(C)N(Cc1cccc(OCCCCCC(=O)O)c1)C(=O)c1ccc(-c2cccc(OCc3ccccc3)c2)cc1`, the half-maximal effective concentration (EC50) with HepG2 was greater than 26 µM; in the test with Plasmodium falciparum [1], greater than 15 µM; with Plasmodium falciparum [2] it was greater than 15 µM; with BJ it was greater than 26 µM; in the test with HEK293, greater than 26 µM; in the test on Raji, greater than 26 µM.
Take `CCOC(=O)CCCCCOc1cccc(CN(C(=O)c2ccccc2)C(C)C)c1`: the half-maximal effective concentration (EC50) was greater than 26 µM in the test on HepG2; greater than 12.5 µM with Plasmodium falciparum [1]; greater than 15 µM in the test on Plasmodium falciparum [2]; greater than 26 µM in the test with BJ; greater than 26 µM in the test with HEK293; greater than 26 µM with Raji.
In the case of `CC(C)N(Cc1cccc(OCCCCCC(=O)O)c1)C(=O)c1ccc(-c2cccc3ccccc23)cc1`, the EC50 in the test on HepG2 was greater than 26 µM; with Plasmodium falciparum [1], greater than 15 µM; in the test on Plasmodium falciparum [2], greater than 15 µM; with HEK293 it was greater than 26 µM; with Raji, greater than 26 µM.
Regarding `CCOC(=O)CCCCCOc1cccc(CN(C(=O)c2ccc(-c3cccc(C(F)(F)F)c3)cc2)C(C)C)c1`, the 50% effective concentration (EC50) is greater than 26 µM in the test on HepG2; greater than 15 µM in the test with Plasmodium falciparum [1]; greater than 15 µM with Plasmodium falciparum [2]; greater than 26 µM with HEK293; greater than 26 µM in the test with Raji.
Take `CCOC(=O)CCCCCOc1cccc(CN(C(=O)c2ccc(-c3cccc([N+](=O)[O-])c3)cc2)C(C)C)c1`: the EC50 in the test with HepG2 was greater than 26 µM; in the test with Plasmodium falciparum [1] it was greater than 15 µM; with Plasmodium falciparum [2], greater than 15 µM; with HEK293, greater than 26 µM; in the test on Raji it was greater than 26 µM.
